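Tested at 5 concentrations; 48 h exposure; 96-well plates; endpoints linearly interpolated, else capped at highest concentration. TGI marks complete inhibition of growth.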
Legend:
Test in all cases: inhibition of tumour cell growth, NCI panel, 48 h
[1] = test system: U251 CNS
[2] = test system: CCRF-CEM leukemia
[3] = test system: BT-549 breast
[4] = test system: MDA-MB-435
[5] = test system: HCT-116 colon
[6] = test system: SR leukemia
[7] = test system: SK-MEL-2 melanoma
[8] = test system: HOP-92 NSCLC
[9] = test system: HOP-62 NSCLC
[10] = test system: COLO 205 colon
[11] = test system: 786-0 renal
[12] = test system: ACHN renal
[13] = test system: OVCAR-8 ovarian
[14] = test system: SF-268 CNS
[15] = test system: NCI-H460 lung
[16] = test system: RXF 393 renal
[17] = test system: SK-MEL-28 melanoma
[18] = test system: A498 renal
[19] = test system: RPMI-8226 leukemia
[20] = test system: K-562 leukemia
[21] = test system: SF-539 CNS
[22] = test system: T-47D breast
[23] = test system: NCI-H522 lung
[24] = test system: OVCAR-5 ovarian
[25] = test system: OVCAR-3 ovarian
[26] = test system: UACC-257 melanoma
[27] = test system: SK-MEL-5 melanoma
[28] = test system: MCF7 breast
[29] = test system: MOLT-4 leukemia
[30] = test system: A549 NSCLC
[31] = test system: HL-60(TB) leukemia
[32] = test system: OVCAR-4 ovarian
[33] = test system: EKVX NSCLC
[34] = test system: LOX IMVI melanoma
[35] = test system: MALME-3M melanoma
[36] = test system: SN12C renal
[37] = test system: NCI-H23 lung
[38] = test system: KM12 colon
[39] = test system: NCI-H226 lung
[40] = test system: UACC-62 melanoma
[41] = test system: SNB-75 CNS
[42] = test system: HS 578T breast
[43] = test system: SNB-19 CNS
[44] = test system: DU-145 prostate
[45] = test system: UO-31 renal
[46] = test system: HT29 colon
[47] = test system: HCT-15 colon
[48] = test system: IGROV1 ovarian
[49] = test system: SF-295 CNS
[50] = test system: NCI/ADR-RES ovarian
[51] = test system: SK-OV-3 ovarian
[52] = test system: M14 melanoma
[53] = test system: CAKI-1 renal
[54] = test system: PC-3 prostate
[55] = test system: MDA-N
[56] = test system: SW-620 colon
[57] = test system: MDA-MB-231 breast
[58] = test system: TK-10 renal
[59] = test system: HCC-2998 colon

Measured: TGI

O=c1[nH]c2cc([N+](=O)[O-])c(N(CCO)CCO)c([N+](=O)[O-])c2[nH]1
71.4 µM: [39]
33.3 µM: [25]
43.2 µM: [15]
51.7 µM: [3]
72.1 µM: [40]
91.8 µM: [17]
96.1 µM: [7]
91.7 µM: [4] | [29]
87.5 µM: [5]
66 µM: [18]
93.3 µM: [38]
77.1 µM: [21]
80.9 µM: [31]
89.7 µM: [51]
89.4 µM: [41]
80.5 µM: [22]
98.1 µM: [19]
49.4 µM: [16]
89 µM: [52]
39.7 µM: [27]
51.8 µM: [10]
54.4 µM: [33]
59.3 µM: [26]
not listed: [58] | [59]
> 100 µM: all other assays above

COC(=O)c1cccc2c1Oc1ccccc1S2
54.9 µM: [27]
70 µM: [29]
79.4 µM: [10]
56.9 µM: [2]
36.4 µM: [38]
71.1 µM: [41]
28.9 µM: [31]
75.2 µM: [46]
65.1 µM: [53]
not listed: [35] | [37] | [59]
> 100 µM: all other assays above

NC(N)=N/N=C(/c1ccccc1)c1ccc(O)cc1O
91 µM: [36]
61.7 µM: [18]
88.4 µM: [15]
65.8 µM: [27]
39 µM: [21]
59.2 µM: [13]
58.7 µM: [52]
64.7 µM: [33]
96.4 µM: [11]
33.2 µM: [10]
57.3 µM: [1]
80.3 µM: [42]
39.2 µM: [46]
28.6 µM: [55]
34.5 µM: [23]
32 µM: [59]
60.8 µM: [6]
79.8 µM: [19]
not listed: [2] | [29] | [31]
> 100 µM: all other assays above
